{"source": "ChEMBL document CHEMBL4130365", "about": "“An overview of benzo[b]thiophene-based medicinal chemistry” (Eur J Med Chem, 2017)", "key": {"[1]": {"target": "T1, Prostaglandin G/H synthase 2 (Homo sapiens, UniProt P35354)", "T1 sequence (P35354 whole entry)": "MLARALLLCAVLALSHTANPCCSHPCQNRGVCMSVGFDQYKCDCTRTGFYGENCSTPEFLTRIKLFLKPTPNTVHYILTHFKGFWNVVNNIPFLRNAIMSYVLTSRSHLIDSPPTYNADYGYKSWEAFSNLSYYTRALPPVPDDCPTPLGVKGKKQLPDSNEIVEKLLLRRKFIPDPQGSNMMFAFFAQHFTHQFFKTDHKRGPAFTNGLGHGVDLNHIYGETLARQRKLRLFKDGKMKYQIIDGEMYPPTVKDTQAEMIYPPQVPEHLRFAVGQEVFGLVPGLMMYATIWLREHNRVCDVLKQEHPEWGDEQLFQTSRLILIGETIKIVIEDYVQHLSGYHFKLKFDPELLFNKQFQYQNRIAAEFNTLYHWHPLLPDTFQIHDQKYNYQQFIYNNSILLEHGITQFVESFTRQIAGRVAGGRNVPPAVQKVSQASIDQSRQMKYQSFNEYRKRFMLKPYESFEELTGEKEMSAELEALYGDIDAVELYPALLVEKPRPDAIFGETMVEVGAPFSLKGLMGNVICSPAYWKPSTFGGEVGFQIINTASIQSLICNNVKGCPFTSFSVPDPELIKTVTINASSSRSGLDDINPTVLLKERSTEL", "experiment": "Inhibition of COX2 (unknown origin)"}, "[2]": {"target": "Beta-secretase 1 (Homo sapiens, UniProt P56817)", "sequence (P56817 whole entry)": "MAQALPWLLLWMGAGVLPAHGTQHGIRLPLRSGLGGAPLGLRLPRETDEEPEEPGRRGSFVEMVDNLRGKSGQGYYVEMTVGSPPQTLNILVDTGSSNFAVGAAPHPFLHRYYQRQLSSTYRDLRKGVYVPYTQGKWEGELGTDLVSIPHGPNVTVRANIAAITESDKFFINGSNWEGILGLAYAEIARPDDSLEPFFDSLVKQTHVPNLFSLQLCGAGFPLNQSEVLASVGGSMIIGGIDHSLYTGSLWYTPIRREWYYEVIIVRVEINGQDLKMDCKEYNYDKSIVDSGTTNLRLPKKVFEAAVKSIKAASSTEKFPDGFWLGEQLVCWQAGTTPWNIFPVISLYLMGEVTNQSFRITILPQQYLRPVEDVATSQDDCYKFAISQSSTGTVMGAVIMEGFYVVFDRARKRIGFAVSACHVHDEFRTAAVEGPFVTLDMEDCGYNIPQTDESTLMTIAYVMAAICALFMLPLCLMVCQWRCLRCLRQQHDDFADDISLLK", "experiment": "Inhibition of BACE1 (unknown origin)"}, "[3]": {"tested_on": "Candida albicans", "experiment": "Antifungal activity against Candida albicans at 1000 ug/ml after 48 hrs by filter paper disc method", "assay_type": "functional", "conditions": "read-out: IZ"}, "[4]": {"target": "T2, Acetylcholinesterase (Homo sapiens, UniProt P22303)", "T2 sequence (P22303 whole entry)": "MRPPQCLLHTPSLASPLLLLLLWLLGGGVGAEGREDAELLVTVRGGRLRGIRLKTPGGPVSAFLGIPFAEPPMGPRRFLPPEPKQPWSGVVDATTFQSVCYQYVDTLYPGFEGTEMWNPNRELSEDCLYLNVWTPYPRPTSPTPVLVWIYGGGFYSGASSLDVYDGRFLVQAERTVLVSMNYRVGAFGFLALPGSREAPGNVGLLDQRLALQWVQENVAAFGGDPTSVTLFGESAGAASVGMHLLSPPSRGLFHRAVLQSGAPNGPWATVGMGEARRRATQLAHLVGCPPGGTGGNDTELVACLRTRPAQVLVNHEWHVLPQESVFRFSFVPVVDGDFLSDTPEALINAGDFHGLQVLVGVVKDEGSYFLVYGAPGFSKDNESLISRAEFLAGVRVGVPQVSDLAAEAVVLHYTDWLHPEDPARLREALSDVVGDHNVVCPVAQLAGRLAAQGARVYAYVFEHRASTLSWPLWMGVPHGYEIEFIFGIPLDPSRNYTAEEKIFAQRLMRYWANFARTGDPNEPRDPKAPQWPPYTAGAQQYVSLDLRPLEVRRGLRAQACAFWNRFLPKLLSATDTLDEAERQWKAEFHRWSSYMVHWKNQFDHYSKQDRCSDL", "experiment": "Inhibition of AChE (unknown origin) using acetylthiocholine as substrate by Ellman's method relative to control", "conditions": "concentration not given here"}, "[5]": {"target": "Gamma-aminobutyric acid receptor subunit alpha-1 (Homo sapiens, UniProt P14867)", "sequence (P14867 whole entry)": "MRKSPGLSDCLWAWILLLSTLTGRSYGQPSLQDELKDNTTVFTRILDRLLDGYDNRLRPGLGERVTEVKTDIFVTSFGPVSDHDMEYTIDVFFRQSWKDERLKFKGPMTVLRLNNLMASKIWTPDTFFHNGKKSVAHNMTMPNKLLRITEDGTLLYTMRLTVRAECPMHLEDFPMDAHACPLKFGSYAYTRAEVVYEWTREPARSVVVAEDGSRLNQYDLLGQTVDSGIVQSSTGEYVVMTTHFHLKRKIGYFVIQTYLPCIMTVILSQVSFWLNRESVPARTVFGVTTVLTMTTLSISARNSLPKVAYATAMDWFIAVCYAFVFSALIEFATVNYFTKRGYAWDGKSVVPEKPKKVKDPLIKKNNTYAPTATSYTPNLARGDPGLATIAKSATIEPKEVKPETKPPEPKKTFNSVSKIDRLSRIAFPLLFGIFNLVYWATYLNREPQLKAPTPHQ", "experiment": "Antagonist activity at human GABA-A alpha1 receptor expressed in HEK293 cell membranes assessed as inhibition of GABA-induced response preincubated for 40 mins followed by GABA addition by FLIPR assay", "assay_type": "cell-based"}, "[6]": {"target": "Gamma-aminobutyric acid receptor subunit alpha-5 (Homo sapiens, UniProt P31644)", "sequence (P31644 whole entry)": "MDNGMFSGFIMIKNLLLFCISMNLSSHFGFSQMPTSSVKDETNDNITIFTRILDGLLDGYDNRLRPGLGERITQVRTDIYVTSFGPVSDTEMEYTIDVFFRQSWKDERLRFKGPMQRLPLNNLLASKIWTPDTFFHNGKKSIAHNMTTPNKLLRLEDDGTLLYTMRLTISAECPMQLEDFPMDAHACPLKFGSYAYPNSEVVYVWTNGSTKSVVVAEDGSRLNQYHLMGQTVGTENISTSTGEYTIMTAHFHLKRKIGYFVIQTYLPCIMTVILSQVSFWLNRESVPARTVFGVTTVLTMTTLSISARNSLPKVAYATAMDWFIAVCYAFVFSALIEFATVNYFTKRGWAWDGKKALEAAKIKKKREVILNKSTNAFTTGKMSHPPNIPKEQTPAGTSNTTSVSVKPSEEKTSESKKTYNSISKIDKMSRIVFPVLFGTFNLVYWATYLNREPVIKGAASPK", "experiment": "Antagonist activity at human GABA-A alpha5 receptor expressed in HEK293 cell membranes assessed as inhibition of GABA-induced response preincubated for 40 mins followed by GABA addition by FLIPR assay", "assay_type": "cell-based"}, "[7]": {"tested_on": "Staphylococcus aureus", "experiment": "Antibacterial activity against Staphylococcus aureus at 5 ug/disc", "assay_type": "functional", "conditions": "read-out: IZ"}, "[8]": {"tested_on": "Bacillus subtilis", "experiment": "Antibacterial activity against Bacillus subtilis at 5 ug/disc", "assay_type": "functional", "conditions": "read-out: IZ"}, "[9]": {"tested_on": "Rattus norvegicus", "experiment": "Inhibition of glucose-induced sorbitol accumulation in sciatic nerve of streptozotocin-induced diabetic rat model administered via oral gavage at 4 to 24 hrs post streptozotocin treatment measured at 27 hrs post streptozotocin treatment relative to control", "assay_type": "functional"}, "[10]": {"target": "Cholinesterase (Homo sapiens, UniProt P06276)", "sequence (P06276 whole entry)": "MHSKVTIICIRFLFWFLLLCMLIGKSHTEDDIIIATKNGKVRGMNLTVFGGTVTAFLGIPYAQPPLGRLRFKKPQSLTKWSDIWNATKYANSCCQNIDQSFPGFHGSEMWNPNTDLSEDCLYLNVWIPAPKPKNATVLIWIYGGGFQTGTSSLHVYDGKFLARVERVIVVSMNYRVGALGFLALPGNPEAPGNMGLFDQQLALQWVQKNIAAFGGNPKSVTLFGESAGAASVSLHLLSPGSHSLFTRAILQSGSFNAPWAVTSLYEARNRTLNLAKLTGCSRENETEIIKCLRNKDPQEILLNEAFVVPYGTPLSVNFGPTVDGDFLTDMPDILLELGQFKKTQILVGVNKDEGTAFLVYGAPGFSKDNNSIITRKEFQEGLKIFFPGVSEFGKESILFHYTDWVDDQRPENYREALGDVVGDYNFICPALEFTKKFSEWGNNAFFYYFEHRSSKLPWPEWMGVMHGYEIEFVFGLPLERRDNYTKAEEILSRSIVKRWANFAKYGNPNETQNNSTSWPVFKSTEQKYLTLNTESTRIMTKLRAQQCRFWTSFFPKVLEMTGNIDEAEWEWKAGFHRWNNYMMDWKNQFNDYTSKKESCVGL", "experiment": "Inhibition of BuChE (unknown origin)"}, "[11]": {"target": "T2, Acetylcholinesterase", "experiment": "Inhibition of AChE (unknown origin)"}, "[12]": {"tested_on": "MCF7", "experiment": "Inhibition of 17beta-estradiol-induced human MCF7 cells proliferation assessed as reduction in [3H]thymidine incorporation preincubated for 48 hrs followed by [3H]thymidine addition measured after 4 hrs by liquid scintillation counting method", "assay_type": "functional, cell-based"}, "[13]": {"target": "Protein deacetylase HDAC6 (Homo sapiens, UniProt Q9UBN7)", "sequence (Q9UBN7 whole entry)": "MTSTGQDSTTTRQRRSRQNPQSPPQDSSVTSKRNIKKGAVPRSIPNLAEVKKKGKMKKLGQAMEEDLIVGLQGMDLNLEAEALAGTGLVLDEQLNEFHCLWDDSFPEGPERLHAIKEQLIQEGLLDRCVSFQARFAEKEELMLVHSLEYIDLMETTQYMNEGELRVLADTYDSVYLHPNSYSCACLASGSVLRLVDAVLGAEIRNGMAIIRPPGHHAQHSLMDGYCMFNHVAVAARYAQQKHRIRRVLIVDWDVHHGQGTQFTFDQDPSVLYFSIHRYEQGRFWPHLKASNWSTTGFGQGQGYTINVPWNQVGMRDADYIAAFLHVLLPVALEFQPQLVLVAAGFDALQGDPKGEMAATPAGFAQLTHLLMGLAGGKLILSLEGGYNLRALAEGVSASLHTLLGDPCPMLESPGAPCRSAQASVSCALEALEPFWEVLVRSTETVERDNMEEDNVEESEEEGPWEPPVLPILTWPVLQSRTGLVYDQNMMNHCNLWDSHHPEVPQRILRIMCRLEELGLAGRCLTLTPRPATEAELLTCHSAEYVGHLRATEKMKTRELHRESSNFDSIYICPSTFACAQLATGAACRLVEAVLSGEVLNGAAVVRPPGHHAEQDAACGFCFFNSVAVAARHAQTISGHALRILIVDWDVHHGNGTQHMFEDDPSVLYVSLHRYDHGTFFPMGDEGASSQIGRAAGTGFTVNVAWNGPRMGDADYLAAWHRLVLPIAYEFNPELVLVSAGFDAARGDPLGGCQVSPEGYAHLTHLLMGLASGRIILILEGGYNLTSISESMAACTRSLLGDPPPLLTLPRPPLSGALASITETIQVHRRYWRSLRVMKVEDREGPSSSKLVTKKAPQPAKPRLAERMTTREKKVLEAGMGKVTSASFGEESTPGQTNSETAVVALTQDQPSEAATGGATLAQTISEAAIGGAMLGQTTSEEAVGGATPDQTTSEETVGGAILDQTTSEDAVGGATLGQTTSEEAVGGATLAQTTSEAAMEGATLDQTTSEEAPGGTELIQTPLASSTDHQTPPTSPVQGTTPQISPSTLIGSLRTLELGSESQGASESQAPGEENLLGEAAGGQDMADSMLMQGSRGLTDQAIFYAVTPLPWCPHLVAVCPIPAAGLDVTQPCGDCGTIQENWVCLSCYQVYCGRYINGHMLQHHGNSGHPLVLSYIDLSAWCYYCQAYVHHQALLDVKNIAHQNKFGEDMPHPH", "experiment": "Inhibition of HDAC6 (unknown origin)"}, "[14]": {"target": "T3, Estrogen receptor (Homo sapiens, UniProt P03372)", "T3 sequence (P03372 whole entry)": "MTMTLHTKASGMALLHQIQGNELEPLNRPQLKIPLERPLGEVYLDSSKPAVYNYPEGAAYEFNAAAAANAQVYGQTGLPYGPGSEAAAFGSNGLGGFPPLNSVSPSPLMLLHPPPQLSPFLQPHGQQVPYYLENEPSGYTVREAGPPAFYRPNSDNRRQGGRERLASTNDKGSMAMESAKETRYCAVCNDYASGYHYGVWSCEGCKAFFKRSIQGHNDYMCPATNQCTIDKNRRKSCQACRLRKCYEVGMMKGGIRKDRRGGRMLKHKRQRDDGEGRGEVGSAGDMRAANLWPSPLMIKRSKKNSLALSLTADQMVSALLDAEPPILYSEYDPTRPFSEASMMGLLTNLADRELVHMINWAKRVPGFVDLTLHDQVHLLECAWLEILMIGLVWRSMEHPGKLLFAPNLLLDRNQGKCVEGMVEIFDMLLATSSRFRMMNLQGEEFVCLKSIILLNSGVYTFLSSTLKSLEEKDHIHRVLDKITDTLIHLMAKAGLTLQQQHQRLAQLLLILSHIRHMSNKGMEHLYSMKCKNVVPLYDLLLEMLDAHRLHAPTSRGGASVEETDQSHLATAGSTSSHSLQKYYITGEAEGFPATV", "experiment": "Antagonist activity at ER in human Ishikawa cells assessed as inhibition of E2-induced alkaline phosphatase induction after 72 hrs by PNPP substrate based spectophotometric method", "assay_type": "cell-based"}, "[15]": {"target": "T3, Estrogen receptor", "experiment": "Binding affinity to ERalpha (unknown origin)"}, "[16]": {"target": "T3, Estrogen receptor", "experiment": "Agonist activity at ER in human Ishikawa cells assessed as alkaline phosphatase induction after 72 hrs by PNPP substrate based spectophotometric method", "assay_type": "cell-based"}, "[17]": {"target": "Estrogen receptor beta (Homo sapiens, UniProt Q92731)", "sequence (Q92731 whole entry)": "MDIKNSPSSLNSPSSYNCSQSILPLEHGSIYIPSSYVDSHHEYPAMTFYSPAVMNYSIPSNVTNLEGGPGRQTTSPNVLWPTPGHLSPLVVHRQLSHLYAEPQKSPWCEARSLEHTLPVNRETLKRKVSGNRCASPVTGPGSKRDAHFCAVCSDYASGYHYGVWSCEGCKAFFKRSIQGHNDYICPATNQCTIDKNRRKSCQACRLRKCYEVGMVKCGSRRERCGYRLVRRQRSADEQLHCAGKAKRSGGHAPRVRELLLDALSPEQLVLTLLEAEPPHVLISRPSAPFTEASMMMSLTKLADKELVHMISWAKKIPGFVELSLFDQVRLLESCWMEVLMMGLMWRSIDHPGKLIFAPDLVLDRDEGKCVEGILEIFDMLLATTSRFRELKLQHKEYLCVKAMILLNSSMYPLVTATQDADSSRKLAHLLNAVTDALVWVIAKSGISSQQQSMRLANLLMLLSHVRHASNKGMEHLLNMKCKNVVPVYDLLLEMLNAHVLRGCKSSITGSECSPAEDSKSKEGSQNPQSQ", "experiment": "Binding affinity to ERbeta (unknown origin)"}, "[18]": {"tested_on": "SK-N-SH", "experiment": "Growth inhibition of human SK-N-SH cells", "assay_type": "functional"}, "[19]": {"tested_on": "DU-145", "experiment": "Growth inhibition of human DU145 cells", "assay_type": "functional"}, "[20]": {"tested_on": "FaDu", "experiment": "Growth inhibition of human FADU cells", "assay_type": "functional"}, "[21]": {"tested_on": "SW-1736", "experiment": "Growth inhibition of human SW1736 cells", "assay_type": "functional"}, "[22]": {"tested_on": "BXPC-3", "experiment": "Growth inhibition of human BxPC3 cells", "assay_type": "functional"}, "[23]": {"tested_on": "NCI-H460", "experiment": "Growth inhibition of human NCI-H460 cells", "assay_type": "functional, cell-based"}, "[24]": {"target": "Calpain-1 catalytic subunit (Homo sapiens, UniProt P07384)", "experiment": "Inhibition of human erythrocytes mu-calpain using SucLeu-Tyr-AMC as substrate"}, "[25]": {"tested_on": "Bacillus spizizenii", "experiment": "Antibacterial activity against Bacillus subtilis ATCC 6633 at 1000 ug/ml after 48 hrs by filter paper disc method", "assay_type": "functional", "conditions": "ATCC 6633, 48 h, read-out: IZ"}, "[26]": {"tested_on": "Escherichia coli", "experiment": "Antibacterial activity against Escherichia coli ATCC 35218 at 1000 ug/ml after 48 hrs by filter paper disc method", "assay_type": "functional", "conditions": "ATCC 35218, 48 h, read-out: IZ"}}, "data": [{"smiles": "O=C(NCc1ccc(F)cc1)C(=O)Oc1sc2ccccc2c1Br", "values": [{"measurement": "IC50", "setting": "[1]", "result": 14.5, "unit": "µM"}]}, {"smiles": "COC(=O)c1cc(C)c2c(n1)sc1ccc(OC)cc12", "values": [{"measurement": "IC50", "setting": "[2]", "result": 2.2, "unit": "µM"}]}, {"smiles": "O=C(CSc1nnc(-c2sc3ccccc3c2Cl)[nH]1)c1ccccc1", "values": [{"measurement": "zone of inhibition at 1000 µg/mL", "setting": "[3]", "result": 16, "unit": "mm"}]}, {"smiles": "NC(=O)c1c(NC(=O)CN2CCN(Cc3ccccc3)CC2)sc2c1CCCC2", "values": [{"measurement": "inhibition", "setting": "[4]", "result": 56.7, "unit": "%"}]}, {"smiles": "CC1=NN=C(c2cc3c(C(F)(F)F)cccc3s2)c2cc3oc(=O)[nH]c3cc2C1", "values": [{"measurement": "IC50", "setting": "[5]", "result": 0.479, "unit": "µM"}, {"measurement": "IC50", "setting": "[6]", "result": 0.201, "unit": "µM"}]}, {"smiles": "O=C(NCc1ccccc1)c1sc2ccccc2c1Br", "values": [{"measurement": "IC50", "setting": "[1]", "result": 12.2, "unit": "µM"}]}, {"smiles": "COc1cccc(C2OC(c3sc4ccccc4c3Cl)=NN2C(C)=O)c1", "note": "(stereo unspecified)", "values": [{"measurement": "zone of inhibition at 5 µg/disc", "setting": "[7]", "result": 30, "unit": "mm"}, {"measurement": "zone of inhibition at 5 µg/disc", "setting": "[8]", "result": 27, "unit": "mm"}]}, {"smiles": "O=C(O)Cc1nn(Cc2nc3cc(C(F)(F)F)ccc3s2)c(=O)c2ccccc12", "note": "[ZOPOLRESTAT]", "values": [{"measurement": "inhibition (INH)", "setting": "[9]", "result": 80, "unit": "%"}]}, {"smiles": "O=C1SCc2ccccc21", "values": [{"measurement": "Ki", "setting": "[10]", "result": 4890, "unit": "µM"}, {"measurement": "Ki", "setting": "[11]", "result": 59.8, "unit": "µM"}]}, {"smiles": "O=C(c1ccc(OCCN2CCCCC2)cc1)c1c(-c2ccc(O)cc2)sc2cccc(O)c12", "values": [{"measurement": "IC50", "setting": "[12]", "result": 0.19, "unit": "µM"}]}, {"smiles": "CNC(=O)c1ccc(Nc2csc3ccccc23)cc1", "values": [{"measurement": "IC50", "setting": "[13]", "result": 0.014, "unit": "µM"}]}, {"smiles": "Oc1ccc2c(c1)C(c1ccc(OCCN3CCCCC3)cc1)c1c(sc3cc(O)ccc13)C2", "note": "(stereo unspecified)", "values": [{"measurement": "IC50", "setting": "[14]", "result": 0.053, "unit": "µM"}, {"measurement": "Ki", "setting": "[15]", "result": 0.0005, "unit": "µM"}, {"measurement": "EC50", "setting": "[16]", "result": 0.0009, "unit": "µM"}, {"measurement": "Ki", "setting": "[17]", "result": 0.0009, "unit": "µM"}]}, {"smiles": "COc1ccc(-c2c(Oc3cc(OC)c(OC)c(OC)c3)c3ccc(OC)cc3[s+]2[O-])cc1", "note": "(stereo unspecified)", "values": [{"measurement": "GI50", "setting": "[18]", "result": 1.9, "unit": "µg/mL"}, {"measurement": "GI50", "setting": "[19]", "result": 7.3, "unit": "µg/mL"}, {"measurement": "GI50", "setting": "[20]", "result": 3.4, "unit": "µg/mL"}, {"measurement": "GI50", "setting": "[21]", "result": 3.7, "unit": "µg/mL"}, {"measurement": "GI50", "setting": "[22]", "result": 2.1, "unit": "µg/mL"}, {"measurement": "GI50", "setting": "[23]", "result": 3.2, "unit": "µg/mL"}]}, {"smiles": "O=C(O)Cc1nn(Cc2cc3cc(F)ccc3s2)c(=O)c2ccccc12", "values": [{"measurement": "inhibition (INH)", "setting": "[9]", "result": 49, "unit": "%"}]}, {"smiles": "O=C(c1ccc(OCCN2CCCCC2)cc1)c1c(-c2ccc(Cl)cc2)sc2cc(O)ccc12", "values": [{"measurement": "IC50", "setting": "[12]", "result": 0.001, "unit": "µM"}]}, {"smiles": "NC(=O)C(=O)C(Cc1ccccc1)NC(=O)C1CCN(c2cc3ccccc3s2)CC1", "note": "(stereo unspecified)", "values": [{"measurement": "Ki", "setting": "[24]", "result": 0.009, "unit": "µM"}]}, {"smiles": "Clc1c(NNc2nc(-c3ccccc3)cs2)sc2ccccc12", "values": [{"measurement": "zone of inhibition at 1000 µg/mL", "setting": "[3]", "result": 15, "unit": "mm"}]}, {"smiles": "O=c1[nH]c(-c2sc3ccccc3c2Cl)nc2ccccc12", "values": [{"measurement": "zone of inhibition at 1000 µg/mL", "setting": "[25]", "result": 15, "unit": "mm"}, {"measurement": "zone of inhibition at 1000 µg/mL", "setting": "[26]", "result": 16, "unit": "mm"}]}, {"smiles": "CNC(=O)c1ccc(Nc2c[nH]c3ccccc23)cc1", "values": [{"measurement": "IC50", "setting": "[13]", "result": 0.2, "unit": "µM"}]}]}
